Reference: PubChem BioAssay (NCI)
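Values below derive from 48-hour exposures of cells grown in 96-well plates, with endpoints linearly interpolated between the two concentrations bracketing the appropriate inhibition level. TGI is the concentration that stops growth completely.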

Legend:
Assay in all cases: DTP human tumour cell line panel, 48 h
HL-60(TB) leukemia = system: HL-60(TB) leukemia
NCI-H226 lung = system: NCI-H226 lung
NCI-H522 lung = system: NCI-H522 lung
MDA-MB-435 = system: MDA-MB-435
HCT-15 colon = system: HCT-15 colon
SW-620 colon = system: SW-620 colon
LOX IMVI melanoma = system: LOX IMVI melanoma
SR leukemia = system: SR leukemia
NCI/ADR-RES ovarian = system: NCI/ADR-RES ovarian
SK-OV-3 ovarian = system: SK-OV-3 ovarian
ACHN renal = system: ACHN renal
MCF7 breast = system: MCF7 breast
OVCAR-3 ovarian = system: OVCAR-3 ovarian
BT-549 breast = system: BT-549 breast
NCI-H460 lung = system: NCI-H460 lung
OVCAR-8 ovarian = system: OVCAR-8 ovarian
SF-295 CNS = system: SF-295 CNS
CCRF-CEM leukemia = system: CCRF-CEM leukemia
SK-MEL-2 melanoma = system: SK-MEL-2 melanoma
HCC-2998 colon = system: HCC-2998 colon
SN12C renal = system: SN12C renal
K-562 leukemia = system: K-562 leukemia
A498 renal = system: A498 renal
SK-MEL-28 melanoma = system: SK-MEL-28 melanoma
786-0 renal = system: 786-0 renal
PC-3 prostate = system: PC-3 prostate
DU-145 prostate = system: DU-145 prostate
KM12 colon = system: KM12 colon
OVCAR-5 ovarian = system: OVCAR-5 ovarian
MALME-3M melanoma = system: MALME-3M melanoma
MOLT-4 leukemia = system: MOLT-4 leukemia
OVCAR-4 ovarian = system: OVCAR-4 ovarian
SNB-75 CNS = system: SNB-75 CNS
TK-10 renal = system: TK-10 renal
RPMI-8226 leukemia = system: RPMI-8226 leukemia
RXF 393 renal = system: RXF 393 renal
U251 CNS = system: U251 CNS
M14 melanoma = system: M14 melanoma
UO-31 renal = system: UO-31 renal
COLO 205 colon = system: COLO 205 colon
IGROV1 ovarian = system: IGROV1 ovarian
SK-MEL-5 melanoma = system: SK-MEL-5 melanoma
MDA-MB-231 breast = system: MDA-MB-231 breast
EKVX NSCLC = system: EKVX NSCLC
HS 578T breast = system: HS 578T breast
HCT-116 colon = system: HCT-116 colon
SNB-19 CNS = system: SNB-19 CNS
T-47D breast = system: T-47D breast
A549 NSCLC = system: A549 NSCLC
NCI-H23 lung = system: NCI-H23 lung
SF-268 CNS = system: SF-268 CNS
HOP-92 NSCLC = system: HOP-92 NSCLC
HOP-62 NSCLC = system: HOP-62 NSCLC
UACC-62 melanoma = system: UACC-62 melanoma

With `COc1cccc(-c2cc(=O)c3c(C)cc(C)nc3[nH]2)c1` the TGI (HL-60(TB) leukemia) was 0.505 µM, the TGI (NCI-H226 lung) was 9.09 µM and the TGI (NCI-H522 lung) was 11.5 µM. For the same compound, the TGI (MDA-MB-435) was 0.398 µM, the TGI (HCT-15 colon) was > 45.5 µM and the TGI (SW-620 colon) was > 100 µM. The TGI (LOX IMVI melanoma) was > 100 µM, the TGI (SR leukemia) was 0.513 µM and the TGI (NCI/ADR-RES ovarian) was > 100 µM. For the same compound, the TGI (SK-OV-3 ovarian) was > 100 µM, the TGI (ACHN renal) was > 100 µM and the TGI (MCF7 breast) was 27.3 µM. The TGI (OVCAR-3 ovarian) was 0.652 µM, the TGI (BT-549 breast) was > 100 µM and the TGI (NCI-H460 lung) was > 42.1 µM. For the same compound, the TGI (OVCAR-8 ovarian) was > 100 µM, the TGI (SF-295 CNS) was > 73.6 µM and the TGI (CCRF-CEM leukemia) was 2.87 µM. For the same compound, the TGI (SK-MEL-2 melanoma) was 97.6 µM, the TGI (HCC-2998 colon) was 6.19 µM and the TGI (SN12C renal) was > 100 µM. For the same compound, the TGI (K-562 leukemia) was 1.41 µM, the TGI (A498 renal) was 10.8 µM and the TGI (SK-MEL-28 melanoma) was > 100 µM. For the same compound, the TGI (786-0 renal) was > 100 µM, the TGI (PC-3 prostate) was > 100 µM and the TGI (DU-145 prostate) was > 72.1 µM. The TGI (KM12 colon) was 16.6 µM, the TGI (OVCAR-5 ovarian) was > 100 µM and the TGI (MALME-3M melanoma) was > 100 µM. For the same compound, the TGI (MOLT-4 leukemia) was > 71.9 µM, the TGI (OVCAR-4 ovarian) was > 100 µM and the TGI (SNB-75 CNS) was 0.671 µM. For the same compound, the TGI (TK-10 renal) was > 100 µM, the TGI (RPMI-8226 leukemia) was 6.09 µM and the TGI (RXF 393 renal) was > 100 µM. For the same compound, the TGI (U251 CNS) was > 88.6 µM, the TGI (M14 melanoma) was > 100 µM and the TGI (UO-31 renal) was > 100 µM. The TGI (COLO 205 colon) was 0.637 µM, the TGI (IGROV1 ovarian) was > 67.4 µM and the TGI (SK-MEL-5 melanoma) was 14.8 µM. For the same compound, the TGI (MDA-MB-231 breast) was > 100 µM, the TGI (EKVX NSCLC) was > 100 µM and the TGI (HS 578T breast) was > 100 µM. The TGI (HCT-116 colon) was > 59.9 µM, the TGI (SNB-19 CNS) was > 100 µM and the TGI (T-47D breast) was > 100 µM. The TGI (A549 NSCLC) was > 100 µM, the TGI (NCI-H23 lung) was > 38.4 µM and the TGI (SF-268 CNS) was 36.2 µM. The TGI (HOP-92 NSCLC) was > 85 µM, the TGI (HOP-62 NSCLC) was > 65.1 µM and the TGI (UACC-62 melanoma) was > 100 µM.
